Test results reported in article PMC4467398, “Preclinical antitumor activity of ST7612AA1: a new oral thiol-based histone deacetylase (HDAC) inhibitor” (Oncotarget, 2014).

Test system: DOHH2 and TMD8 DLBCL cells
Test: Gene expression profiling (HumanHT-12 v4 BeadChip, limma), ST7612AA1 300 nM 8 hrs vs DMSO
Type: cell-based, human
Details: 300 nM 8 hrs vs DMSO

## CC(=O)SCCCCC[C@H](NC(=O)[C@H]1CCC(=O)N1)C(=O)Nc1ccccc1 [ST7612AA1]
  log ratio TCEA2 (probe ILMN_1665526): 8.50E-01
  log ratio TCEAL3 (probe ILMN_1734190): 7.88E-01
  log ratio TCERG1 (ILMN_1706839): -8.49E-01
  log ratio TCFL5 (ILMN_1814247): 6.07E-01
  log ratio TCTN1 (probe ILMN_1685124): 7.81E-01
  log ratio TESK2 (probe ILMN_1654370): 8.37E-01
  log ratio TFB2M (ILMN_2067709): -7.83E-01
  log ratio THOC6 (ILMN_1679880): -5.93E-01
  log ratio THUMPD2 (ILMN_1787511): -6.05E-01
  log ratio TIMM10 (ILMN_1765332): -1.04E+00
  log ratio TLK1 (ILMN_1811029): -9.26E-01
  log ratio TMBIM4 (ILMN_1664750): -9.76E-01
  log ratio TMED1 (ILMN_1693045): -9.13E-01
  log ratio TMEM14A (probe ILMN_1785191): 7.29E-01
  log ratio TMEM49 (probe ILMN_1692754): 8.49E-01
  log ratio TMEM154 (probe ILMN_2088124): 6.89E-01
  log ratio TMEM179B (ILMN_3241979): 5.96E-01
  log ratio TMEM184B (ILMN_1747460): 6.31E-01
  log ratio TMEM199 (ILMN_1748481): -6.12E-01
  log ratio TMOD2 (probe ILMN_3250273): 7.57E-01
  log ratio TMPO (ILMN_1768816): -8.22E-01
  log ratio TNFRSF17 (ILMN_1768016): -1.76E+00
  log ratio TOB1 (ILMN_1672004): 6.63E-01
  log ratio TPRG1L (probe ILMN_1727479): 7.86E-01
  log ratio TPST1 (probe ILMN_1651950): 7.51E-01
  log ratio TPST2 (probe ILMN_1695432): 7.18E-01
  log ratio TRAFD1 (probe ILMN_1758250): 8.52E-01
  log ratio TRIM4 (ILMN_2323385): 6.43E-01
  log ratio TRIM6 (ILMN_1656910): 5.98E-01
  log ratio TRIM8 (ILMN_1746704): -8.66E-01
  log ratio TRIM21 (ILMN_1678054): -8.09E-01
  log ratio TRIM22 (ILMN_1779252): -8.73E-01
  log ratio TRIP6 (ILMN_1713990): -1.16E+00
  log ratio TRMT1 (ILMN_1812940): -8.45E-01
  log ratio TRMT11 (ILMN_1805481): -8.20E-01
  log ratio TSEN2 (ILMN_1746393): -8.42E-01
  log ratio TSPAN4 (ILMN_2340027): 5.99E-01
  log ratio TTC27 (ILMN_1757730): -1.28E+00
  log ratio TTLL12 (ILMN_1663113): -6.01E-01
  log ratio TUBG2 (ILMN_1701052): 6.65E-01
  log ratio TXNDC14 (ILMN_1799367): -8.38E-01
  log ratio TYMS (ILMN_1806040): -1.10E+00
  log ratio TYSND1 (ILMN_1775677): -1.15E+00
  log ratio TYW3 (ILMN_1726842): -9.88E-01
  log ratio U2AF2 (ILMN_1768930): -1.25E+00
  log ratio UBE2A (probe ILMN_2307455): 7.18E-01
  log ratio UBE2C (ILMN_2265654): -7.99E-01
  log ratio UBE2D4 (ILMN_1707084): -8.99E-01
  log ratio UBE2H (ILMN_1757644): 6.49E-01
  log ratio UBE2J1 (ILMN_1713759): -1.05E+00
  log ratio UBTD1 (probe ILMN_1794914): 8.56E-01
  log ratio UBXN8 (ILMN_1731891): -8.44E-01
  log ratio UCK2 (ILMN_1768662): -9.43E-01
  log ratio UCP2 (probe ILMN_1685625): 7.30E-01
  log ratio UNC45A (ILMN_1726434): 6.72E-01
  log ratio UNC84A (probe ILMN_1772316): 7.21E-01
  log ratio UNG (ILMN_1683120): -1.39E+00
  log ratio UPLP (probe ILMN_3236765): 7.46E-01
  log ratio UPP1 (ILMN_1798256): 6.07E-01
  log ratio URB2 (ILMN_3249406): -5.93E-01
  log ratio USP13 (ILMN_3251526): -5.97E-01
  log ratio VASH2 (probe ILMN_1692698): 7.31E-01
  log ratio VPS8 (probe ILMN_1678268): 7.47E-01
  log ratio VRK2 (ILMN_1750088): -9.87E-01
  log ratio VRK3 (ILMN_1771697): 6.75E-01
  log ratio WARS2 (ILMN_2323979): -5.97E-01
  log ratio WDR12 (ILMN_1770692): -7.92E-01
  log ratio WDR12 (ILMN_2045729): -8.64E-01
  log ratio WDR19 (probe ILMN_1655117): 7.77E-01
  log ratio WIBG (ILMN_1751431): -1.01E+00
  log ratio WIPI2 (ILMN_2321292): 6.22E-01
  log ratio WNK1 (ILMN_1876924): 6.14E-01
  log ratio YARS2 (ILMN_1782635): -8.22E-01
  log ratio YDJC (ILMN_1812580): -8.57E-01
  log ratio YPEL3 (ILMN_1791147): 6.17E-01
